Measurements: US11478474B2, “2-(3′-(hydroxymethyl)-1-methyl-5-((5-(2-methyl-4-(oxetan-3-yl)piperazin-1-yl)pyridin-2-yl)amino)-6-oxo-1,6-dihydro-[3,4′-bipyridin]-2′-yl)-7,7-dimethyl-7,8-dihydro-2H-cyclopenta[4,5]pyrrolo[1,2-a]pyrazin-1(6H)-one as a BTK inhibitor” (HUTCHISON MEDIPHARMA LIMITED, priority 2020, dated 2022)
Like-named read-outs stand apart in the source and are kept apart here.

Legend:
[1] = system: TMD8 subcutaneous xenograft (human diffuse large B-cell lymphoma cells); assay: In vivo efficacy in TMD8 subcutaneous xenograft model in nude mice; conditions: for Number of animals with CR (Day 21): 8 animals per group; for Tumor volume (mm^3) ± SD Day 0: Day 0, before drug administration; for TGI (%) / Tumor volume (mm^3) ± SD Day 21: Day 21; for RBW (%) (Day 21): relative body weight; for Tumor growth inhibition (TGI %): oral gavage once a day, 21 days after treatment, vs vehicle control
Procedure: Example 7 Evaluation of In Vivo Efficacy of the Compound of the Present Invention in TMD8 Subcutaneous Xenograft Model
Objects: To investigate the anti-tumor activity of compound 19 in TMD8 subcutaneous xenograft model in nude mice.
Methods: Human diffuse large B-cell lymphoma cells TMD8 (acquired under license from Tokyo Medical and Dental University) were cultured in RPMI1640 medium containing 10% fetal bovine serum. 1×10^7 tumor cells suspended in RPMI1640 medium mixed well with Matrigel (purchased from Corning, USA) at 1:1 were implanted subcutaneously on the right flank of each male Balb/c nude mouse (Shanghai Lingchang Biotechnology Co., Ltd.), pretreated with cyclophosphamide (at a dose of 200 mg/kg, intraperitoneal injection 24 h before cell inoculation). […] All drugs were administered by oral gavage, once a day, and the vehicle control group was administered orally with 0.5% hydroxypropyl methylcellulose solution (pH=3).
Tumor volumes (tumor volume=0.5×long diameter×short diameter^2) and body weights of the mice were measured regularly. The tumor volume change and body weight were statistically analyzed, with p<0.05 considered statistically significant, and p<0.01 as extremely statistically significant.
The anti-tumor activity was evaluated by tumor growth inhibition. Tumor growth inhibition (TGI %)=100%×(1−(TVDt (treatment group)−TVD0 (treatment group))/(TVDt (control group)−TVD0 (control group))) Relative body weight (RBW %)=BWDt/BWD0×100%
wherein, TVD0 represents the tumor volume obtained at first measurement, namely, the tumor volume before drug administration, and TVDt represents the tumor volume on the day of measurement; BWD0 represents the body weight of the animal obtained at first measurement, namely, the body weight of the animal before drug administration; BWDt represents the body weight of the animal on the day of measurement.

[2] = Study on in vivo pharmacokinetics in mice; conditions: 10 mg/kg
Text: Example 6 Study on In Vivo Pharmacokinetics in Mice
Solutol HS15 was purchased from BASF, Germany, ethanol (anhydrous) was purchased from Nanjing Chemical Reagent Co., Ltd., physiological saline was purchased from Huayu (Wuxi) Pharmaceutical Co., Ltd., dimethyl sulfoxide (DMSO) and sodium carboxymethyl cellulose 800-1200 (CMC-Na) were purchased from Sinopharm Chemical Reagent Co., Ltd.
Preparation of ethanol/Solutol mixed solution (1:1, v/v): taking an appropriate amount of Solutol HS15 in a centrifuge tube and placing in a 37° C. water bath until dissolved, placing on the bench top to room temperature, taking 1 mL of Solutol in a centrifuge tube containing 1 mL of ethanol and mixing well to obtain the mixed solution.
Taking an appropriate amount of stock solution and placing in a blank centrifuge tube, adding an appropriate amount of ethanol/Solutol mixed solution prepared in advance, vortexing, then adding an appropriate amount of physiological saline, and mixing well until a transparent liquid.
3. Administration to Animals and Sample Collection:
Male ICR mice were purchased from Shanghai Lingchang Biotechnology Co., Ltd. 18 mice were randomly divided into intravenous administration group and intragastric administration group. The mice were fasted overnight before administration. The mice were withheld food but allowed to access water freely within 4 hours after administration, and allowed to freely access food and water after 4 hours. After anesthesia with isoflurane, blood was collected from the retroorbital venous plexus and placing in an centrifuge tube containing anticoagulant, and the centrifuge tube was stored in an box containing wet ice until the plasma was centrifuged.
The plasma samples were pre-treated and then analyzed by liquid chromatography-tandem mass spectrometry (LC-MS/MS), the instrument model was API5500. The analytical chromatographic column was Waters XSELECT HSS T3 C18 column (50×2.1 mm, 2.5 μm). In the mobile phases, deionized water containing 0.1% formic acid and 0.1% acetonitrile was used as the aqueous phase and acetonitrile containing 0.1% formic acid was used as the organic phase. The concentrations of the compound in the samples were determined as follows. Firstly, a standard curve was established, and the peak area ratios of the compound 19 to the internal standard in the standard curve were used as indexes. The theoretical concentrations of compound 19 and the peak area ratios of compound 19 to the internal standard were fitted with a quadratic regression equation to obtain the regression equation. The sample concentrations were calculated by measuring the peak area ratio of the compound of the test sample to the internal standard according to the standard curve.

[3] = system: collagen induced arthritis in rats; assay: Rat arthritis model induced by type II collagen (CIA), paw volume; type: in vivo; conditions: CIA Lewis rats
Procedure: Example 9 Therapeutic Effect of the Compound of the Present Invention on a Rat Arthritis Model Induced by Type II Collagen
An appropriate amount of bovine type II collagen (CII, Chondrex (Redmond, Wash., USA), Cat #20021) was weighed and dissolved in 0.1 mole of acetic acid (SPGC Sinopharm Chemical Reagent Co., Ltd (Shanghai, P. R. China), Cat #: 10000218.), which was formulated into a solution with a concentration of 6 mg/mL, stirred at 4° C. overnight, and added with an equal volume of Freund's incomplete adjuvant (Sigma-Aldrich. (St. Louis, Mo., USA), Cat #: SLBW0366.), fully emulsified to prepare an emulsion with a CII concentration of 3 mg/mL.
Female Lewis rats were purchased from Beijing Vital River Laboratory Animal Technology Co., Ltd (certificate number 1100111911070522, initial body weight of 110-130 grams), and 3 rats were randomly selected as normal group, and the remaining rats were grouped according to the following table. In the first immunization on day 0, the rats except that in the normal group were anesthetized with isoflurane (Hebei Yipin Pharmaceutical Co., Ltd., Lot: C002170601.), and then disinfected with 75% alcohol. 0.2 mL of emulsion was injected intradermally at the base of the tail thereof. A second challenge was carried out on day 7, and 0.2 mL of emulsion was intradermally injected using the same method.
The paw volume was measured on day 8 after immunization, and the left and right hind paw volumes (V) were measured every day after the paw volume increase was detected.
The average arthrosis paw volume of each animal before administration was used as the baseline (or considered 100% inhibition of inflammation). The averaged paw swelling (APS) of each animal is calculated according to the following formula, wherein, APVd1 is the average paw volume of the animal administered on day 1, and APVdt is the average paw volume of the animal administered on day t: The averaged paw swelling APSdt=(APVdt−APVd1)
ED50 is calculated by XLfit software according to the AUC inhibition ratio of the area under the curve of the average paw volume change. The selected model is “log (inhibitor) vs. response−Variable slope”: […]

[4] = 10 mg/kg oral gavage once a day
[5] = male ICR mice, oral (intragastric) administration, plasma
[6] = male ICR mice, oral (intragastric) administration, plasma, 24 h
[7] = mouse, male ICR mice, oral (intragastric) administration, plasma
[8] = mouse, male ICR mice, oral (intragastric) administration, plasma, read-out: Cmax
[9] = 30 mg/kg oral gavage once a day
[10] = oral QD, from AUC inhibition ratio of average paw volume change

Compound | Number of animals with CR (Day 21) [1, 4] | Tumor volume (mm^3) ± SD Day 0 [1, 4] | TGI (%) [1, 4] | Tumor volume (mm^3) ± SD Day 21 [1, 4] | RBW (%) (Day 21) [1, 4] | Tumor growth inhibition (TGI %) ([1]; 10 mg/kg) | Cmax [2, 5] | C24 h (plasma concentration at 24 h) [2, 6] | AUC(0-inf) [2, 7] | half-life [2, 7] | Cmax [2, 8] | inhibition ratio of area under the curve (paw swelling) ([3]; 4 mg/kg QD oral) | other results
C[C@H]1CN(C2COC2)CCN1c1ccc(Nc2cc(-c3ccnc(N4CCn5c(cc6c5CC(C)(C)C6)C4=O)c3CO)cn(C)c2=O)nc1 [GDC-0853, fenebrutinib, reference compound] | 0 | 397 ± 46 mm^3 | −12.8% | 3585 ± 494 mm^3 | 115.5% | −12.8% | 4063 ng/mL | <2.4 ng/mL | 10300 ng·h/mL | 90 min | 4060 ng/mL | 87.1% | concentration at 8 h ([2]; mouse, male ICR mice, oral (intragastric) administration, plasma, 8 h, read-out: C8 h (plasma concentration at 8 h)): 143 ng/mL; concentration at 24 h ([2]; mouse, male ICR mice, oral (intragastric) administration, plasma, 24 h, read-out: C24 h (plasma concentration at 24 h)): < 2.4 ng/mL; paw volume compared with the vehicle control group ([3]; 4 mg/kg QD oral, p<0.01): significantly reduced
C[C@H]1CN(C2COC2)CCN1c1ccc(Nc2cc(-c3ccnc(-n4ccn5c6c(cc5c4=O)CC(C)(C)C6)c3CO)cn(C)c2=O)nc1 [Compound 19] | 0 | 400 ± 41 mm^3 | 76.5% | 1065 mm^3 | 111.0% | 76.5% | 3807 ng/mL | 8.5 ng/mL | 17800 ng·h/mL | 162 min | 3810 ng/mL | 93.2% | Number of animals with CR (Day 21) [1, 9]: 8; Tumor volume (mm^3) ± SD Day 0 [1, 9]: 396 ± 47 mm^3; TGI (%) [1, 9]: 114%; Tumor volume (mm^3) ± SD Day 21 [1, 9]: 0 mm^3; RBW (%) (Day 21) [1, 9]: 109.8%; Tumor growth inhibition (TGI %) ([1]; 30 mg/kg): 114%; mice with complete tumor regression (CR) ([1]; 30 mg/kg, oral once a day, Day 21, 8 animals per group): 8 mice; C8 h (plasma concentration at 8 h) ([2]; male ICR mice, oral (intragastric) administration, plasma, 8 h): 555 ng/mL; plasma exposure (AUC0-∞) relative to the reference GDC-0853 ([2]; mice, oral administration): about 1.7 times; plasma concentration at 8 h relative to GDC-0853 ([2]; mice, oral administration, 8 h): about 3.9 folds; inhibition ratio of area under the curve (paw swelling) ([3]; 0.06 mg/kg QD oral): 58.8%; inhibition ratio of area under the curve (paw swelling) ([3]; 0.25 mg/kg QD oral): 91.3%; inhibition ratio of area under the curve (paw swelling) ([3]; 1 mg/kg QD oral): 95.9%; inhibition ratio of area under the curve (paw swelling) ([3]; 16 mg/kg QD oral): 97.5%; ED50 [3, 10]: < 0.06 mg/kg/day; ED90 [3, 10]: 0.26 mg/kg; minimum effective dose ([3]; oral QD, paw swelling): 0.06 mg/kg/day
